Data published in patent US20080280920A1, “Plasminogen Activator Inhibitor-1 Inhibitors” (priority 2005, published 2008).

Legend:
Type in all cases: cell-based, human
[1] = system: HCT-15; test: NCI anticancer screen, HCT-15; details: Homo sapiens; HCT-15, Colon, 48 h
[2] = system: T-47D; test: NCI anticancer screen, T-47D; details: Homo sapiens, T47D, Breast, 48 h
[3] = system: RXF 393; test: NCI anticancer screen, RXF 393; details: Homo sapiens; RXF 393, Renal, 48 h
[4] = system: UACC-62; test: NCI anticancer screen, UACC-62; details: Homo sapiens; UACC-62, Melanoma, 48 h
[5] = system: HOP-92; test: NCI anticancer screen, HOP-92; details: Homo sapiens; HOP-92, Non-Small Cell Lung, 48 h
[6] = system: M14; test: NCI anticancer screen, M14; details: Homo sapiens; M14, Melanoma, 48 h
[7] = system: SF-295; test: NCI anticancer screen, SF-295; details: Homo sapiens; SF-295, CNS, 48 h
[8] = system: SNB-19; test: NCI anticancer screen, SNB-19; details: Homo sapiens; SNB-19, CNS, 48 h
[9] = system: K-562; test: NCI anticancer screen, K-562; details: Homo sapiens, K562; K-562, Leukemia, 48 h
[10] = system: A549/ATCC; test: NCI anticancer screen, A549/ATCC; details: Homo sapiens, Non-Small Cell Lung, 48 h
[11] = system: OVCAR-3; test: NCI anticancer screen, OVCAR-3; details: Homo sapiens; OVCAR-3, Ovarian, 48 h
[12] = system: MCF7; test: NCI anticancer screen, MCF7; details: Homo sapiens; MCF7, Breast, 48 h
[13] = system: HT29; test: NCI anticancer screen, HT29; details: Homo sapiens, HT-29; HT29, Colon, 48 h
[14] = system: KM12; test: NCI anticancer screen, KM12; details: Homo sapiens; KM12, Colon, 48 h
[15] = system: A498; test: NCI anticancer screen, A498; details: Homo sapiens; A498, Renal, 48 h
[16] = system: SF-268; test: NCI anticancer screen, SF-268; details: Homo sapiens; SF-268, CNS, 48 h
[17] = system: SN12C; test: NCI anticancer screen, SN12C; details: Homo sapiens, 48 h, Renal
[18] = system: OVCAR-4; test: NCI anticancer screen, OVCAR-4; details: Homo sapiens; OVCAR-4, Ovarian, 48 h
[19] = system: OVCAR-8; test: NCI anticancer screen, OVCAR-8; details: Homo sapiens; OVCAR-8, Ovarian, 48 h
[20] = system: NCI-H522; test: NCI anticancer screen, NCI-H522; details: Homo sapiens; NCI-H522, Non-Small Cell Lung, 48 h
[21] = system: SK-MEL-5; test: NCI anticancer screen, SK-MEL-5; details: Homo sapiens; SK-MEL-5, Melanoma, 48 h
[22] = system: SK-MEL-28; test: NCI anticancer screen, SK-MEL-28; details: Homo sapiens; SK-MEL-28, Melanoma, 48 h
[23] = system: TK-10; test: NCI anticancer screen, TK-10; details: Homo sapiens; TK-10, Renal, 48 h
[24] = system: MDA-MB-231/ATCC; test: NCI anticancer screen, MDA-MB-231/ATCC; details: Homo sapiens, Breast, 48 h
[25] = system: HS 578T; test: NCI anticancer screen, HS 578T; details: Homo sapiens, Breast, 48 h
[26] = system: COLO 205; test: NCI anticancer screen, COLO 205; details: Homo sapiens; COLO 205, Colon, 48 h
[27] = system: BT-549; test: NCI anticancer screen, BT-549; details: Homo sapiens; BT-549, Breast, 48 h
[28] = system: DU-145; test: NCI anticancer screen, DU-145; details: Homo sapiens; DU-145, Prostate, 48 h
[29] = system: IGR-OV1; test: NCI anticancer screen, IGR-OV1; details: Homo sapiens, IGROV-1; IGR-OV1, Ovarian, 48 h
[30] = system: 786-0; test: NCI anticancer screen, 786-0; details: Homo sapiens; 786-0, Renal, 48 h
[31] = system: SF-539; test: NCI anticancer screen, SF-539; details: Homo sapiens; SF-539, CNS, 48 h
[32] = system: CAKI-1; test: NCI anticancer screen, CAKI-1; details: Homo sapiens; CAKI-1, Renal, 48 h
[33] = system: EKVX; test: NCI anticancer screen, EKVX; details: Homo sapiens, Non-Small Cell Lung, 48 h
[34] = system: OVCAR-5; test: NCI anticancer screen, OVCAR-5; details: Homo sapiens; OVCAR-5, Ovarian, 48 h

Structure (SMILES): CCOC(=O)[C@H](Cc1ccccc1)NCc1cc(CN2CCN(c3ccccn3)CC2)c(O)c(OC)c1 [Compound Q012147T]
- GI50 [1]: 98.3 µM
- GI50 [2]: 33.5 µM
- GI50 [3]: 76.5 µM
- GI50 [4]: > 100 µM
- GI50 [5]: 24.8 µM
- GI50 [6]: 99 µM
- GI50 [7]: > 100 µM
- GI50 [8]: > 100 µM
- GI50 [9]: 49.3 µM
- GI50 [10]: > 100 µM
- GI50 [11]: 86.2 µM
- GI50 [12]: 88.8 µM
- GI50 [13]: 43.2 µM
- GI50 [14]: > 100 µM
- GI50 [15]: > 100 µM
- GI50 [16]: > 100 µM
- GI50 [17]: > 100 µM
- GI50 [18]: 70.2 µM
- GI50 [19]: > 100 µM
- GI50 [20]: 76.3 µM
- GI50 [21]: 18.7 µM
- GI50 [22]: > 100 µM
- GI50 [23]: 83 µM
- GI50 [24]: > 100 µM
- GI50 [25]: 48.3 µM
- GI50 [26]: > 100 µM
- GI50 [27]: 67.5 µM
- GI50 [28]: > 100 µM
- GI50 [29]: > 100 µM
- GI50 [30]: 60.2 µM
- GI50 [31]: 73.4 µM
- GI50 [32]: > 100 µM
- GI50 [33]: > 100 µM
- GI50 [34]: > 100 µM
